# Like-named read-outs stand apart in the source and are kept apart here.
# Key:
# [1] = test system: Escherichia coli strain DH5α; test: microbe, parasite or virus in culture; format: cell-based
# From the text: If CPP, DNA binding and AMP activities are compatible, the designed peptides should inhibit bacterial growth. Here we exposed E. coli DH5α cells to varying low concentrations of the designed peptides as well as several controls (see Fig 4). […] To test whether α-factor was important for AMP activity we also tested pure α-factor, pure NLS, the optimized NLS fitting CPP rules (NLS-CE) and the Iztli-1 peptide, a previously reported peptide with an embedded α-factor specifically designed to have antibacterial activity. […] A linear trend could be observed between concentration and growth inhibition (regression lines with standard deviations shown in Fig 6). […] The minimal inhibitory concentrations for E. coli are reported in Table 2 (growth curves are shown in S4 Fig).
# Fig 6 Antibacterial activity. DH5α E. coli cells were treated with varying concentrations of peptides ranging from 0 to 16 μM for the peptides and 0 to 48 μM for Ampicillin. The relative area under the growth curve measured the growth inhibition. Measurements from four repetitions distributed onto two different plates are shown as dots colored by their respective concentrations. Linear regressions are shown as blue lines and their respective standard errors as blue shades. Dashed lines indicate the mean area under the curve for the H2O controls and its 50% value respectively. Minimal inhibitory concentrations to achieve 50% or 100% of cell growth inhibition are reported.
# Escherichia coli strain DH5α was grown for 12 hours to mid-log phase and diluted to 8·10^5 cells/ml by using the reference OD obtained by absorption spectroscopy. Each sample 100μL culture was treated with 50μL solution containing the respective peptide in the desired concentration or water in the case of the controls. Growth curves were measured on two 96 well half area plates with two replicates each followed for 24h using a plate reader (Synergy, USA). In order to minimize plate-specific effects due to variations in loading time or initial cell numbers, different plates measurements were normalized by the time-point where the water control samples reached their half-maximal OD before combining. The respective minimum from each growth curve was subtracted from the normalized data from individual or combined plates. Areas under the curves were obtained by applying a linear interpolation to the OD curves, which was then integrated exactly. Growth rates were obtained by log-transforming the growth curves, identifying the exponential phase by the linear parts in that log-transformation (OD600 between 0.05 and 0.5) and performing a linear regression in the exponential phase with the slope denoting the respective growth rate. All mentioned methodology was implemented in R (www.r-project.org) and is available as open source at http://github.com/cdiener/dcf.
# Using the slope of the linear regressions determined in these experiments, we estimated the minimal inhibitory concentration (MIC) for E. coli of our 3 CPP designed peptides (α-NLS-C, NLS-α-CE and chimera) and tested it experimentally.
# pGREG546 plasmid = test: Electrophoretic mobility shift assay (EMSA), DNA retention; format: binding; conditions: for DNA binding in EMSA, in words: 1μg pGREG546, DNA to peptide charge ratio 1:1 or 1:4, 30 minutes
# From the text: To test the ability of the designed peptides to bind nucleic acids, we evaluated by electrophoretic mobility shift assays (EMSAs) the retention of DNA by the designed peptides. Each EMSA was executed with peptide quantities that were multiples of the DNA to peptide charge ratio. A DNA to peptide charge ratio of 1:1 is represented by the number of positive charges of the peptide required to neutralize the negative charges of the DNA backbone. Retention in the gel is an indirect measure of the fraction of positive charges within the peptide participating in binding the DNA molecules. All EMSA assays were performed using the yeast plasmid pGREG546. As negative control, pGREG546 without any peptide was used, and as positive control the known DNA-binding cell penetrating peptide MPG was used. […] However, retention in the gel was observed when NLS was joined to any larger peptide fragment.
# Fig 4 DNA binding. (A) Quantification of DNA retention obtained from three independent electrophoretic mobility shift assays. All measurements are shown and horizontal bars denote the sample mean. Representative gels are shown in (B-C).
# 1μg of pGREG546 plasmid was pre-incubated with the required quantity of each peptide to result in a 1:1 or 1:4 peptide charge to DNA charge ratio. Samples were incubated for 30 minutes and loaded on a 1% Agarose gel in SB buffer. DNA affinity was quantified by measuring the mean pixel intensity of the DNA bands with Fiji (http://fiji.sc) and normalizing to the intensity range between an empty spot on the gel and the intensity of the pGREG546 plasmid without any added peptide. Analysis scripts for the EMSA experiments as well as the raw data can be found with the distributed source code at http://bis.ifc.unam.mx/software/dcf.
# [2] = Circular dichroism, secondary structure content (CONTIN/LL); format: physicochemical; conditions: for Secondary Structure Random coil / Secondary Structure α-Helix / Secondary Structure β-Sheet: 0.3mg in 1mL, 20°C, far-UV CD, CONTIN/LL
# Description: We studied the structural properties of the peptides in vitro, using circular dichroism (see Materials and Methods). The far-UV CD spectra for NLS-CE, NLS-α and NLS-α-CE in water matched the characteristics of a random coil conformation.
# Circular dichroism spectra were recorded on a ChirascanTM CD Spectrometer (Applied Photophysics, UK) equipped with a peltier temperature controller. 0.3mg of each peptide was dissolved in 1mL of water or 50% aqueous trifluoroethanol and placed in quartz cuvettes of 0.1cm path length. Far-UV CD spectra were collected from 185 to 250 nm at 20°C. Spectra were averaged over 5 scans and the averaged blank spectra of solvents were subtracted. Ellipticity is reported as mean residue molar ellipticity and recorded in terms of molar elipticity [θ] (deg cm^2 dmol^−1). CONTIN/LL within the CDPro analysis software program was used to estimate the secondary structure content of the peptides.
# [3] = test system: pheromone-signaling pathway (Fus1-eGFP) in MATa cells; test: Pheromone signaling assay, Fus1-GFP expression and shmoo phenotype; format: cell-based, Saccharomyces cerevisiae; conditions: BY4741 fus1::eGFP, 60 μM peptide (20 μM for α-factor), 3h
# Description: Finally, the activity of the α-factor embedded in the peptides was evaluated by activation of the pheromone-signaling pathway in MATa cells of S. cerevisiae. We monitored the pheromone signaling activity by following the expression of the GFP-labeled Fus1 protein. Fus1 is among the proteins with the highest pheromone-induced expression and is required for cell-cell fusion during mating. […] The observed phenotype was consistent with the activation of signaling showing a mating protrusion, often called “shmoo” as well as the absence of budding due to inhibition of the Cdc28 cyclin [35, 36].
# Fig 5 Pheromone activity. The pheromone signaling pathway is confirmed by the expression of Fus1-GFP, characteristic “shmoo” phenotype and the absence of budding observed in differential interference contrast (DIC) bright field. Concentrations were 20 μM for α-factor and 60 μM for all other peptides. The negative control was water without any peptide.
# Pheromone signaling induction in Saccharomyces cerevisiae was measured by induction of eGFP fluorescence in a BY4741 strain containing the Fus1-eGFP construct in place of the wild type Fus1 (MATa his3Δ1 leu2Δ0 met15Δ0 ura3Δ0 fus1::eGFP HIS3MX6, obtained from the yeast GFP collection). The BY4741 fus1::eGFP strain was grown overnight in YPD to mid-log phase and diluted to 10^6 cells/mL. Samples were treated with the respective peptide concentrations and incubated for 3h before mixing 1:1 with low-diffusivity agarose suspended on a covered glass slide. Images were taken with an Olympus FV10 confocal microscope using a 60x objective with […]. Images were analyzed using Fiji (www.fiji.sc). The only modifications applied to the images were separation of the bright field and GFP channels, adjustment of brightness and contrast to 50% and addition of scale bars.
# [4] = test system: Escherichia coli strain DH5α; format: cell-based; conditions: 12 h
# [5] = E. coli DH5α, peptides 0 to 16 μM
Compound,"antibacterial activity against E. coli, in words [1, 5]","DNA binding in EMSA, in words (pGREG546 plasmid)",Secondary Structure Random coil ([2]; 50% TFE) [%],Secondary Structure α-Helix ([2]; 50% TFE) [%],Secondary Structure β-Sheet ([2]; 50% TFE) [%],Secondary Structure Random coil ([2]; water) [%],Secondary Structure α-Helix ([2]; water) [%],Secondary Structure β-Sheet ([2]; water) [%],"pheromone signaling activity (Fus1-GFP expression, phenotype) [3]",further results
"WHWLQLKPGQPMY [α-factor, mating pheromone α-factor from S. cerevisiae, purchased from Sigma-Aldrich]",no antibacterial activity,weak ability to bind DNA,–,–,–,–,–,–,–,"DNA retention (pGREG546 plasmid; 1:4 DNA to peptide charge ratio, 1μg pGREG546, 30 minutes, 1% agarose gel): around 60%"
"QPKKKRKV [NLS, reference compound]",no antibacterial activity,not capable of binding DNA in low concentrations,–,–,–,–,–,–,–,–
"CC1(C)S[C@@H]2[C@H](NC(=O)[C@H](N)c3ccccc3)C(=O)N2[C@H]1C(=O)O [Ampicillin, reference compound]",–,–,–,–,–,–,–,–,–,"MIC ([1]; Escherichia coli, E. coli DH5α, growth curves followed for 24h, relative area under the growth curve, read-out: E. coli MIC for 50% inhibition): > 48 µM; MIC ([1]; Escherichia coli, E. coli DH5α, predicted from linear regression and tested experimentally, read-out: E. coli MIC for 100% inhibition): 100 µM"
PKKKRKVWHWLQLKPGQPMY [NLS-α],–,–,59,6,35,67,5,28,significant induction of expression of Fus1-GFP,"concentration showing partial growth inhibition [1, 5]: 4 µM; aggregation suggested by decrease in negative ellipticity ([2]; 50% TFE, CD spectra): TFE promoted aggregation of the peptides"
"CSCC[C@H](NC(=O)[C@@H]1CCCN1C(=O)[C@H](CCC(N)=O)NC(=O)CNC(=O)[C@@H]1CCCN1C(=O)[C@H](CCCCN)NC(=O)[C@H](CC(C)C)NC(=O)[C@H](CCC(N)=O)NC(=O)[C@H](CC(C)C)NC(=O)[C@H](Cc1c[nH]c2ccccc12)NC(=O)[C@H](Cc1c[nH]cn1)NC(=O)[C@H](Cc1c[nH]c2ccccc12)NC(=O)[C@H](Cc1ccccc1)NC(=O)[C@H](CCCNC(=N)N)NC(=O)[C@H](CC(N)=O)NC(=O)[C@H](CC(C)C)NC(=O)[C@H](Cc1ccccc1)NC(=O)[C@@H](N)CCCCN)C(=O)N[C@@H](Cc1ccc(O)cc1)C(=O)O [Iztli-1, reference compound]",very similar E. coli growth inhibition as NLS-α,increased its affinity for DNA,–,–,–,–,–,–,same phenotype,"E. coli MIC for 100% inhibition [4]: 20 µM; MIC ([1]; DH5α, 24 h, read-out: E. coli MIC for 50% inhibition): 8 µM"
"WRFVWMNPKKKRKV [NLS-CE, optimized NLS fitting CPP rules]",partial growth inhibition,effective DNA-binding activity,61,5,34,64,6,31,–,–

# Reference: paper PMC4838304, “Effective Design of Multifunctional Peptides by Combining Compatible Functions” (PLoS Computational Biology, 2016)
